# Data: ChEMBL document CHEMBL5465560, “Selectivity Literature for EUbOPEN Chemogenomic Library” (2024)
# Key:
# [1] = target: T1, Dual specificity tyrosine-phosphorylation-regulated kinase 2 (Homo sapiens) (UniProt Q92630); conditions: at 10 µM
# T1 sequence (whole entry): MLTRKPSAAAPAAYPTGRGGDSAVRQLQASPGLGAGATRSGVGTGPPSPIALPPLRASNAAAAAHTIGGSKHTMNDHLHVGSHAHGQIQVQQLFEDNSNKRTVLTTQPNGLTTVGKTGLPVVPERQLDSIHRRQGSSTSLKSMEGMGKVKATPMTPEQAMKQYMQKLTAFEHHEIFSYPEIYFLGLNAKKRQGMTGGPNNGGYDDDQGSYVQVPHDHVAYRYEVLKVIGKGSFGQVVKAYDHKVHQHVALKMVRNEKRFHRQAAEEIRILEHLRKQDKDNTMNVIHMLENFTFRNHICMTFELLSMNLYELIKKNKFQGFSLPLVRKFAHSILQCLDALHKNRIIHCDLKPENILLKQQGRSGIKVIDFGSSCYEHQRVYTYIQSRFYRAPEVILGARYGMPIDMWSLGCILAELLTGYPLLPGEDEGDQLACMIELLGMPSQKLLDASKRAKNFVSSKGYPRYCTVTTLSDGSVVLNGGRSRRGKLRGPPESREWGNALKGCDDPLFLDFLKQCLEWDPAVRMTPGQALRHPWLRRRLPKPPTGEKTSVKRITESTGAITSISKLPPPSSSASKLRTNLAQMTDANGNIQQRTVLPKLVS
# [2] = target: Serine/threonine-protein kinase mTOR (Homo sapiens, UniProt P42345); conditions: at 10 µM
# [3] = target: T2, Interleukin-1 receptor-associated kinase 3 (Homo sapiens) (UniProt Q9Y616); test: Selectivity interaction (ActivX KiNativ screen (kinase selectivity in THP-1 cell lysates)) EUB0000639a IRAK3; format: subcellular; conditions: lysate
# T2 sequence (whole entry): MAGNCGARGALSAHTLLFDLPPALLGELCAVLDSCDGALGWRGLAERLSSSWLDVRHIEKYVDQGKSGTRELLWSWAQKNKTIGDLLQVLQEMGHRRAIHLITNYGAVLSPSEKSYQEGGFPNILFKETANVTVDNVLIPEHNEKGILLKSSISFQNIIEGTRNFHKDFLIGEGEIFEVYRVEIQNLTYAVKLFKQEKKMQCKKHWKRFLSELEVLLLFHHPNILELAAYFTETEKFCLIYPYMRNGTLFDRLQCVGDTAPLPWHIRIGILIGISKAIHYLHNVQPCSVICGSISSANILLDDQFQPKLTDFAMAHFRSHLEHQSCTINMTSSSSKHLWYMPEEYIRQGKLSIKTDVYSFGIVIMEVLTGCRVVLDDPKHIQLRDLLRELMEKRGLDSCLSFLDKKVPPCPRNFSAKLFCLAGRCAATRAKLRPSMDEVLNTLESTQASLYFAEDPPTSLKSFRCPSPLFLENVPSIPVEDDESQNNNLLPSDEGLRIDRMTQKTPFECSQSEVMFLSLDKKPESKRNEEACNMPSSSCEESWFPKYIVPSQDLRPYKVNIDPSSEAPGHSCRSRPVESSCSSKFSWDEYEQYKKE
# [4] = target: T3, Serine/threonine-protein kinase TAO2 (Homo sapiens) (UniProt Q9UL54); test: Selectivity interaction (ActivX KiNativ screen (kinase selectivity in THP-1 cell lysates)) EUB0000639a TAOK2; format: subcellular; conditions: lysate
# T3 sequence (whole entry): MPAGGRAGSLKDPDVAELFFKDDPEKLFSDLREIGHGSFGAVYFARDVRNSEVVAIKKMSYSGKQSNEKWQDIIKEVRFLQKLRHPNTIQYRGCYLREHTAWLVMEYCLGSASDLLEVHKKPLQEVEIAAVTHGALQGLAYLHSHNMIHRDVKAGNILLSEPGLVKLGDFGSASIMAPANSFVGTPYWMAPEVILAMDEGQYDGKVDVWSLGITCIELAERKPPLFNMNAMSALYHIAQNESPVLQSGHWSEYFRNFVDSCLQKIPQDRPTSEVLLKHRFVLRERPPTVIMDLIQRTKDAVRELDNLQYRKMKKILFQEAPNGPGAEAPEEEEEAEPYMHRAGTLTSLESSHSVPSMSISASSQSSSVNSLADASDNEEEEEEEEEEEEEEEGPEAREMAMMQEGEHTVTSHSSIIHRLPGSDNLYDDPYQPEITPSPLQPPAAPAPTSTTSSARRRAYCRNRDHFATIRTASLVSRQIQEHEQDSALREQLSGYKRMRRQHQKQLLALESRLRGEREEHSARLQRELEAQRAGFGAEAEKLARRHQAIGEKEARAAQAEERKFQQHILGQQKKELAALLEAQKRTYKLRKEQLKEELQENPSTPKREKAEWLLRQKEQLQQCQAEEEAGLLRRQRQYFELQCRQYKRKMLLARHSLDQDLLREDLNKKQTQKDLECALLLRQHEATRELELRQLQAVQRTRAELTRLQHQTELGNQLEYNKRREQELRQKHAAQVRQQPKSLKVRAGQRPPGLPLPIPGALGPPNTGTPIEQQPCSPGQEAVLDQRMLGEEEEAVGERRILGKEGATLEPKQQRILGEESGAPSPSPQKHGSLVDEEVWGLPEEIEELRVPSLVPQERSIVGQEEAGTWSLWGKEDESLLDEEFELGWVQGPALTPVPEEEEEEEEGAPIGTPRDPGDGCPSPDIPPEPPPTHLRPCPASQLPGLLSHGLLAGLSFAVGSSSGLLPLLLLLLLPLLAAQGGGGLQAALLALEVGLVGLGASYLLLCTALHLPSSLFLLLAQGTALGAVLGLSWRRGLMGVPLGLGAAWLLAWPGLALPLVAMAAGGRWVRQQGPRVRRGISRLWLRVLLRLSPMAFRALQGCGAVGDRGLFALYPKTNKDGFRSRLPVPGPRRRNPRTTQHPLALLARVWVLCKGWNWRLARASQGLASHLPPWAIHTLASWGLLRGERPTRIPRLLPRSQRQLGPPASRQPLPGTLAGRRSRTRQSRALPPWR
# [5] = target: Tyrosine-protein kinase Fyn (Homo sapiens) (UniProt P06241); test: Selectivity interaction (Kinase screening (Upstate/Millipore)) EUB0000604a FYN
# Sequence of Tyrosine-protein kinase Fyn (Homo sapiens) (P06241 2-537 limits assumed): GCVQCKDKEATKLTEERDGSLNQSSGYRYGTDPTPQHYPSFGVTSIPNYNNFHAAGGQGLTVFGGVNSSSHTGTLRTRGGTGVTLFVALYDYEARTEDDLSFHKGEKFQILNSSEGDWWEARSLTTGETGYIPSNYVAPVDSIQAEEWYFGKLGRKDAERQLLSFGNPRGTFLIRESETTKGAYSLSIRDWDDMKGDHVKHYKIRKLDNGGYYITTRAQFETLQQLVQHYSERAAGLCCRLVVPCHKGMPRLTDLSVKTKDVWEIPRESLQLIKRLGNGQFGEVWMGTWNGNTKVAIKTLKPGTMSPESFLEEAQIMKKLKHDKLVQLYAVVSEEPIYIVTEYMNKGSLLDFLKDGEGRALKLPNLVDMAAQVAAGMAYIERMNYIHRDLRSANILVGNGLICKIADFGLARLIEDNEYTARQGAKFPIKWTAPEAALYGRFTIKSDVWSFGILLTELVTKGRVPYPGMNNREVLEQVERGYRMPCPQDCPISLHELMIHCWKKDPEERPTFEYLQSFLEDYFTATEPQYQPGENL
# [6] = target: Calcium/calmodulin-dependent protein kinase kinase 2 (Homo sapiens) (UniProt Q96RR4); test: Selectivity interaction (ActivX KiNativ screen (ex vivo kinase selectivity in human PBMCs)) EUB0001619a CAMKK2; format: cell-based; conditions: PBMC, at 1 µM
# Sequence of Calcium/calmodulin-dependent protein kinase kinase 2 (Homo sapiens) (Q96RR4 2-588 limits assumed): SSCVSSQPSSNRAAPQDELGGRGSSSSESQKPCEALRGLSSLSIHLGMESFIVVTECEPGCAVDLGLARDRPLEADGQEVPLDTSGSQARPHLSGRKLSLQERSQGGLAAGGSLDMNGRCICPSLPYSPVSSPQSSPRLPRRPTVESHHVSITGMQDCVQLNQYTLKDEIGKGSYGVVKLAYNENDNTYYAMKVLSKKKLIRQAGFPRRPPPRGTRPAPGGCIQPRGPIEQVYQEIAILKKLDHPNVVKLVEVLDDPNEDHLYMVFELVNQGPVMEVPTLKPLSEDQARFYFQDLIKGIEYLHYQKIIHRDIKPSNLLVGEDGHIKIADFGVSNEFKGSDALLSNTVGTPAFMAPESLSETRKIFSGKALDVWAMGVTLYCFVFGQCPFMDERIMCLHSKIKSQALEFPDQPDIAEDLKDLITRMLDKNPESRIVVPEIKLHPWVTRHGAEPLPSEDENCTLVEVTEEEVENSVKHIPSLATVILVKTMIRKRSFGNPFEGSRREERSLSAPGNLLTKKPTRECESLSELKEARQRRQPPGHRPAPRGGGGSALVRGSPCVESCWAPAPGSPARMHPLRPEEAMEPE
# [7] = target: Receptor tyrosine-protein kinase erbB-4 (Homo sapiens, UniProt Q15303); test: Selectivity interaction (KinomeScan (DiscoverX)) EUB0001619a ERBB4; conditions: at 1 µM
# Sequence of Receptor tyrosine-protein kinase erbB-4 (Q15303 whole entry): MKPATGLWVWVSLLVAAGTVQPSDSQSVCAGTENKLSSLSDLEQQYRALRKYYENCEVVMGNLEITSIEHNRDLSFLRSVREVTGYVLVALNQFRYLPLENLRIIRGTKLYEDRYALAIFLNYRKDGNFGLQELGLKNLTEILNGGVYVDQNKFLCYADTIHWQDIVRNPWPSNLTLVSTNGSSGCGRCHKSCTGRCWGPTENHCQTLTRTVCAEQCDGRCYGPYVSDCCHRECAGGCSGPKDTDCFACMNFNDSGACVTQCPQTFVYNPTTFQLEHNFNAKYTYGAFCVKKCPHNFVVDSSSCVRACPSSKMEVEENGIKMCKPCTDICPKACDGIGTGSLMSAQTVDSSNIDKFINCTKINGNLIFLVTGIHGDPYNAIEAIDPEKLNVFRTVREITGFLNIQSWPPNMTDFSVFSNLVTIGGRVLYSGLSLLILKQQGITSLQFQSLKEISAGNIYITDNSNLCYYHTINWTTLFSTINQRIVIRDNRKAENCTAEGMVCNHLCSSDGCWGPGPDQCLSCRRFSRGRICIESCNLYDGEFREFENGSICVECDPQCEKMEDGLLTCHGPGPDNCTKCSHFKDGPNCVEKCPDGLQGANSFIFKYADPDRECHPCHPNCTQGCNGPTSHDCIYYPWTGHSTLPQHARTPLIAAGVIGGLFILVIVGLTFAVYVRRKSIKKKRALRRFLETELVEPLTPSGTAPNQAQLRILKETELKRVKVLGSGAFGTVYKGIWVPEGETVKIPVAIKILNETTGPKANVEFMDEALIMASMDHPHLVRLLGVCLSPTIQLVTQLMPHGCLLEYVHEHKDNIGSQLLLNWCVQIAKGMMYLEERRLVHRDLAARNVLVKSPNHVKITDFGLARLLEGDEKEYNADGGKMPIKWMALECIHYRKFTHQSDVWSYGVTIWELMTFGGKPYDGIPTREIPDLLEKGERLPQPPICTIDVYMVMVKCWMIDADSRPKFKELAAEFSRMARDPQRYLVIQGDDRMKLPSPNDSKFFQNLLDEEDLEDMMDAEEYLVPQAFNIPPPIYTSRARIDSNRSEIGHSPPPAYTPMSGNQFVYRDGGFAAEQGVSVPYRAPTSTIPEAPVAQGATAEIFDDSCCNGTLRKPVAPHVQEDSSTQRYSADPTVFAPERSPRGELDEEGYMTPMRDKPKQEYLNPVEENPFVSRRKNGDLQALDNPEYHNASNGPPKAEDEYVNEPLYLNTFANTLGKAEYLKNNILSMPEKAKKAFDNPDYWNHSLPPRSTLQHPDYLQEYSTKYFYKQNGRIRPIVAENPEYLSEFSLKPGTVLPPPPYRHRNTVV
# [8] = target: Phosphatidylinositol 4-phosphate 5-kinase type-1 alpha (Homo sapiens) (UniProt Q99755); test: Selectivity interaction (KinomeScan (DiscoverX)) EUB0001619a PIP5K1A; conditions: at 1 µM
# Sequence of Phosphatidylinositol 4-phosphate 5-kinase type-1 alpha (Homo sapiens) (Q99755 whole entry): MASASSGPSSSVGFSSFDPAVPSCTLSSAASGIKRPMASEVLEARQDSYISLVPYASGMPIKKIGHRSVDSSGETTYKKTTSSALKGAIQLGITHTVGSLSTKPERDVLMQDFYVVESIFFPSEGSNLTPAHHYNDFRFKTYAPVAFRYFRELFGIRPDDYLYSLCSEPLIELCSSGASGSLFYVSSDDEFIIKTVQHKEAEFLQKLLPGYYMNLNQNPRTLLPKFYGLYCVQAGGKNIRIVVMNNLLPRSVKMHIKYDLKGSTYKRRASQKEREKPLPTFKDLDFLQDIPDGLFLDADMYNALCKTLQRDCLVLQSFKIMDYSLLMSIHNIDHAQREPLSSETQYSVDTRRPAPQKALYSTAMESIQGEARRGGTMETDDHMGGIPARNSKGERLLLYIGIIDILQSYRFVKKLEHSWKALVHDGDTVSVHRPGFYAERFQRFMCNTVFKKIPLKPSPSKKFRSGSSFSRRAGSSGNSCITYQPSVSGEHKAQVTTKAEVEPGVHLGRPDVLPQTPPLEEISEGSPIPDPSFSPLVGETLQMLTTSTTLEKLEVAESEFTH
smiles,measurement,setting,value
Cc1cc([C@@H](C)Nc2ccccc2C(=O)O)c2nc(N3CCOCC3)cc(=O)n2c1 [AZD-6482],% of control,[1],89%
same,% of control,[2],11%
CC[C@@H]1[C@H](F)C(=O)N[C@@H]1COc1nccc2cc(C(N)=O)c(OC)cc12 [ZIMLOVISERTIB],% of inhibition,[3]; at 0.01 µM,-3.6%
same,% of inhibition,[3]; at 0.04 µM,31.1%
same,% of inhibition,[3]; at 0.2 µM,72.5%
same,% of inhibition,[3]; at 1 µM,89.6%
same,% of inhibition,[3]; at 5 µM,> 98%
same,% of inhibition,[4]; at 0.01 µM,17.1%
same,% of inhibition,[4]; at 0.04 µM,2%
same,% of inhibition,[4]; at 0.2 µM,-6.6%
same,% of inhibition,[4]; at 1 µM,-12.9%
same,% of inhibition,[4]; at 5 µM,16.2%
Cc1cnc(Nc2ccc(F)cc2Cl)nc1-c1c[nH]c(C(=O)N[C@H](CO)c2cccc(Cl)c2)c1,% of inhibition,[5],11%
N#Cc1cccc(-c2c[nH]c3ncnc(N4CCOCC4)c23)c1,% of inhibition,[6],49%
same,% of control,[7],100%
same,% of control,[8],20%
